From patent US8501446B2 (Vertex Pharmaceuticals Incorporated, priority 2004, dated 2013) come the findings set out here.

Bounds are passed on as bounds.

Type in all cases: biochemical
Test [1] deals with T1, full length Aurora-A (AA 1-403) (Homo sapiens, UniProt O14965).
T1 construct: full length Aurora-A (AA 1-403)
T1 sequence (O14965 1-403): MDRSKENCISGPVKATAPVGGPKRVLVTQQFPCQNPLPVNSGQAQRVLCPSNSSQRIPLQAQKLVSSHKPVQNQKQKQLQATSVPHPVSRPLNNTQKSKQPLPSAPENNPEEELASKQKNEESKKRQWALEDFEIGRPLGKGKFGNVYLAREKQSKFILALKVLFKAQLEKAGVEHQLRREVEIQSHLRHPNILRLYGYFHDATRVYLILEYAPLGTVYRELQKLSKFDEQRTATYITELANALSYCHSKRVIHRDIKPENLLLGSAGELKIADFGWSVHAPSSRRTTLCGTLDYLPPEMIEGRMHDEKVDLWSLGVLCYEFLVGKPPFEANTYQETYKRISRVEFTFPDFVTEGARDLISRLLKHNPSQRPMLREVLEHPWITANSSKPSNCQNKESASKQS
Nature of the test: Aurora-A inhibition assay, standard coupled enzyme system. As to conditions: average Ki if more than one value determined.

The target of a further test is T2, ROCK I (AA 6-553) (Homo sapiens, UniProt Q13464).
T2 construct: ROCK I (AA 6-553)
T2 sequence (Q13464 6-553, species assumed): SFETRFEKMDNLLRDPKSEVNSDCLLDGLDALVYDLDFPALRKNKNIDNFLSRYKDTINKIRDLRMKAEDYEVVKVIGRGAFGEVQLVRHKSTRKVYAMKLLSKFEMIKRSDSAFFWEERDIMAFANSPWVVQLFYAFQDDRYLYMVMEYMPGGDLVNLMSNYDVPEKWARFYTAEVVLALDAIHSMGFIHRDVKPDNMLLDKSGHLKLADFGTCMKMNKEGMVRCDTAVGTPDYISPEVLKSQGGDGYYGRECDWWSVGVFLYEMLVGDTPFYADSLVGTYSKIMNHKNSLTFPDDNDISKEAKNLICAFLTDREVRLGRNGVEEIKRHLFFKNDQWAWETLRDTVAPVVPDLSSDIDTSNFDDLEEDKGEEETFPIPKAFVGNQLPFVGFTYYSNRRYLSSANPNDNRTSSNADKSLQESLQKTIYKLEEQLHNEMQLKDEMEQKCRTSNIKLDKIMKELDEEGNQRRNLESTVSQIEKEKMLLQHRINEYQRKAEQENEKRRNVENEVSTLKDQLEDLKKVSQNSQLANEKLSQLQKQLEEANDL
Nature of the test: ROCK inhibition assay, standard coupled enzyme system ("Enzyme"). As to conditions: enzyme-linked assay. In a few lines:
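ROCK I (AA 6-553) at 45 nM and 30 °C with 45 μM ATP and 200 μM peptide, in 100 mM HEPES pH 7.5, 10 mM MgCl2, 25 mM NaCl, 2 mM DTT, 1.5% DMSO. ADP output read by a PK/LDH coupled system: 2.5 mM PEP, 350 μM NADH, 30 μg/ml PK, 10 μg/ml LDH.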

For a further test, the target named is Aurora-B (Homo sapiens, UniProt Q96GD4). The test is described as follows: Aurora-B inhibition assay, radioactive assay. As to conditions: average Ki if more than one value determined. As to the method: Compounds were screened for their ability to inhibit JAK3 using a standard radioactive enzyme assay. 1.5 μL/well of a DMSO stock containing serial dilutions of a compound of the present invention (concentrations ranging from 667 μM to 46 nM) was placed in a 96 well polycarbonate plate. 50 μL per well of kinase buffer (100 mM HEPES (pH 7.4), 10 mM MgCl2, 25 mM NaCl, 1 mM DTT, and 0.01% bovine serum albumin (BSA)) containing 2 μM poly(Glu)4Tyr and 10 μM ATP was also added to the plate. To initiate the reaction, 50 μL kinase buffer containing 2 nM JAK3 enzyme was added. Final ATP concentration was 5 μM [γ-^33P] ATP (200 μCi ^33P ATP/μmol ATP (Perkin Elmer, Cambridge, Mass.). After 20 minutes at room temperature (25° C.), the reaction was stopped by adding 50 μL 20% trichloroacetic acid (TCA)/0.4 mM ATP to each well. The entire content of each well was then transferred to a 96 well glass fiber filter plate using a TomTek Cell Harvester. After washing, 60 μL scintillation fluid was added and ^33P incorporation detected using a Perkin Elmer TopCount. After removing mean background values for all of the data points the data was fit using Prism software to obtain a Ki(app). Inhibition of JAK2 was measured as above except that final poly(Glu)4Tyr concentration was 15 μM and final ATP concentration was 12 μM.
Chain of Aurora-B (Q96GD4 whole entry): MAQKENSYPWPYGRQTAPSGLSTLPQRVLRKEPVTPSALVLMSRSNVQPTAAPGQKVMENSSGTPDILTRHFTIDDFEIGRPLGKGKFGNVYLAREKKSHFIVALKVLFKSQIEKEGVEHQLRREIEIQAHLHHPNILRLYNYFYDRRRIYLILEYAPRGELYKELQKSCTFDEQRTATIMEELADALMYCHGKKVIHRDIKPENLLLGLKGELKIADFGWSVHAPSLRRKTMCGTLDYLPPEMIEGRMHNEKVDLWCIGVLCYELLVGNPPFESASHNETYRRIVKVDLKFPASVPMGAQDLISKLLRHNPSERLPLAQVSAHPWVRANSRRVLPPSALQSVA
Some compounds were screened for their ability to inhibit ROCK using a standard radioactive enzyme assay. Assays were carried out in a solution containing 100 mM HEPES (pH 7.5), 10 mM MgCl2, 25 mM NaCl, 2 mM DTT, and 1.5% DMSO. Final substrate concentrations in the assay were 13 μM [γ-^33P] ATP (25 mCi ^33P ATP/mmol ATP, Perkin Elmer, Cambridge, Mass./Sigma Chemicals, St Louis, Mo.) and 27 μM Myelin Basic Protein (MBP). Final enzyme concentration in the assay was 5 nM ROCK. Assays were carried out at room temperature. 1.5 μl of DMSO stock containing serial dilutions of the compound of the present invention (concentrations ranging from 10 μM to 2.6 nM) was placed in a 96 well plate. 50 μl of Solution 1 (100 mM HEPES (pH 7.5), 10 mM MgCl2, […]) was added to the plate. The reaction was initiated by addition of 50 μl of Solution 2 (100 mM HEPES (pH 7.5), 10 mM MgCl2, 4 mM DTT, […] and 10 nM ROCK). After 2 hours the reaction was quenched with 50 μL of 30% trichloroacetic acid (TCA, Fisher) containing 9 mM ATP. Transfer of 140 μL of the quenched reaction to a glass fiber filter plate (Corning, Cat. No. 3511) was followed by washing 3 times with 5% TCA. 50 μL of Optima Gold scintillation fluid (Perkin Elmer) was added and the plates were counted on a Top Count (Perkin Elmer). After removing mean background values for all of the data points the data was fit using Prism software to obtain a Ki(app).
An assay stock buffer solution was prepared containing all of the reagents listed above with the exception of ATP and the test compound of interest. The assay stock buffer solution (60 μl) was incubated in a 96 well plate with 2 μl of the test compound of interest at final concentrations spanning 0.002 μM to 30 μM at 30° C. for 10 min. Typically, a 12 point titration was conducted by preparing serial dilutions (from 1 mM compound stocks) with DMSO of the test compounds in daughter plates. The reaction was initiated by the addition of 5 μl of ATP (final concentration 200 μM). Rates of reaction were obtained using a Molecular Devices Spectramax plate reader (Sunnyvale, Calif.) over 10 min at 30° C. The Ki values were determined from the rate data as a function of inhibitor concentration using computerized nonlinear regression (Prism 3.0, Graphpad Software, San Diego, Calif.). Aurora-C activity was screened in a similar manner using Aurora-C protein. Aurora-B activity was screened using a radioactive assay, such as described in Examples 1 and 2, but using Aurora-B protein.

As a reminder, the Ki is a dissociation constant, usually derived from enzyme kinetics or from competition with a known ligand. On to `C[C@H](Nc1nc(-c2c[nH]c3ncc(Cl)cc23)nc2ccccc12)c1ccc(F)cc1` [Compound 404], for which the Ki in test [1] is under 500 nM; at ROCK I (AA 6-553), 500 to 5000 nM; at Aurora-B, 500 to 5000 nM.
With `C[C@H](Nc1nc(-c2c[nH]c3ncc(Cl)cc23)ncc1F)C(=O)NCCc1cn(C)cn1` [Compound 434], the Ki (in test [1]; on ROCK I (AA 6-553); on Aurora-B) was 500 to 5000 nM in each case.
Turning to `Fc1cnc(-c2c[nH]c3ncc(Cl)cc23)nc1NC1CCCc2ccccc21` (stereo not drawn) [Compound 330], the Ki is under 500 nM in test [1], 500 to 5000 nM on ROCK I (AA 6-553) and under 500 nM on Aurora-B.
As for `C[C@@H](C(=O)NCC(F)(F)F)N(C)c1nc(-c2c[nH]c3ncc(Cl)cc23)ncc1C(F)(F)F` [Compound 424], the Ki was under 500 nM in test [1], 500 to 5000 nM on ROCK I (AA 6-553) and under 500 nM at Aurora-B.
Turning to `C[C@H](Nc1nc(-c2c[nH]c3ncc(Cl)cc23)ncc1F)C(=O)NCCN1CCOCC1` [Compound 435], the Ki (in test [1]; on ROCK I (AA 6-553); on Aurora-B) was 500 to 5000 nM in each case.
Turning to `CC(C)OCCCNC(=O)[C@H](C)Nc1nc(-c2c[nH]c3ncc(Cl)cc23)ncc1F` [Compound 440], the Ki (in test [1]; on ROCK I (AA 6-553); on Aurora-B) was 500 to 5000 nM in each case.
As for `C[C@H](Nc1nc(-c2c[nH]c3ncc(Cl)cc23)ncc1F)c1cccc(OCCO)c1` [Compound 341], the inhibitory constant (Ki) in test [1] is under 500 nM; on ROCK I (AA 6-553), 500 to 5000 nM; at Aurora-B, under 500 nM.
Consider `C[C@H](Nc1cc(N2CCNCC2)nc(-c2c[nH]c3ncc(Cl)cc23)n1)C(=O)NCC(F)(F)F` [Compound 416], for which the inhibition constant (Ki) in test [1] was under 500 nM; on ROCK I (AA 6-553), 500 to 5000 nM; on Aurora-B, 500 to 5000 nM.
Consider `Clc1cnc2[nH]cc(-c3cccc(NC4CCCCCC4)n3)c2c1` [Compound 291], for which the Ki in test [1] was under 500 nM; at ROCK I (AA 6-553) it was 500 to 5000 nM; on Aurora-B, 500 to 5000 nM.
As to `C[C@H](Nc1nc(-c2c[nH]c3ncc(Cl)cc23)ncc1F)C(=O)NCCc1cccnc1` [Compound 449], the figures for the Ki (in test [1]; at ROCK I (AA 6-553); on Aurora-B) were under 500 nM, 500 to 5000 nM and 500 to 5000 nM, respectively.
As for `Fc1cnc(-c2c[nH]c3ncc(Cl)cc23)nc1N[C@H]1CCc2ccccc21` [Compound 302], the inhibition constant Ki was under 500 nM in test [1], 500 to 5000 nM on ROCK I (AA 6-553) and under 500 nM at Aurora-B.
As to `CC[C@H](Nc1nc(-c2c[nH]c3ncc(Cl)cc23)ncc1F)c1ccccc1` [Compound 354], the inhibition constant Ki in test [1] is under 500 nM; at ROCK I (AA 6-553) it was 500 to 5000 nM; on Aurora-B, under 500 nM.
For `Cc1ccccc1Nc1nc(-c2c[nH]c3ncc(Cl)cc23)ncc1F` [Compound 299], the inhibition constant Ki (in test [1]; on ROCK I (AA 6-553); on Aurora-B) was under 500 nM throughout.
`COc1ccccc1OCCNC(=O)[C@H](C)Nc1nc(-c2c[nH]c3ncc(Cl)cc23)ncc1F` [Compound 453]: the Ki (in test [1]; at ROCK I (AA 6-553); at Aurora-B) was 500 to 5000 nM throughout.
In the case of `C[C@H](Nc1nc(-c2c[nH]c3ncc(Cl)cc23)ncc1F)C(=O)NCCc1ccccc1` [Compound 433], the inhibition constant (Ki) (in test [1]; at ROCK I (AA 6-553); at Aurora-B) was 500 to 5000 nM throughout.
In the case of `CNc1nc(-c2c[nH]c3ncc(Cl)cc23)nc(N[C@@H](C)C(=O)NCC(F)(F)F)c1C(C)C` [Compound 432], the Ki (in test [1]; on ROCK I (AA 6-553); on Aurora-B) was 500 to 5000 nM throughout.
On to `C[C@H](Nc1nc(-c2c[nH]c3ncc(Cl)cc23)ncc1F)C(=O)NCCCN1CCCC1` [Compound 439], for which the inhibitory constant (Ki) in test [1] is under 500 nM; at ROCK I (AA 6-553), 500 to 5000 nM; on Aurora-B, under 500 nM.
For the compound `C[C@H](Nc1nc(-c2c[nH]c3ncc(Cl)cc23)ncc1F)C(=O)NCCN(C)C(=O)OC(C)(C)C` [Compound 451], the Ki (in test [1]; at ROCK I (AA 6-553); on Aurora-B) was 500 to 5000 nM in each case.
With `C[C@H](Nc1nc(-c2c[nH]c3ncc(Cl)cc23)ncc1C(F)(F)F)C(=O)NCC(F)(F)F` [Compound 418], the inhibition constant Ki in test [1] is under 500 nM; at ROCK I (AA 6-553), 500 to 5000 nM; at Aurora-B, under 500 nM.
Regarding `C[C@H](Nc1nc(-c2c[nH]c3ncc(Cl)cc23)ncc1F)C(=O)NCCc1ccccn1` [Compound 438], the inhibition constant Ki (in test [1]; at ROCK I (AA 6-553); on Aurora-B) was 500 to 5000 nM in each case.
For the compound `C[C@H](Nc1nc(-c2c[nH]c3ncc(Cl)cc23)c(F)cc1C(=O)O)c1ccc(F)cc1` [Compound 397], the inhibitory constant (Ki) was under 500 nM in test [1], 500 to 5000 nM on ROCK I (AA 6-553) and under 500 nM at Aurora-B.
`CNC(=O)[C@@H](Nc1nc(-c2c[nH]c3ncc(Cl)cc23)ncc1F)C(C)(C)C` [Compound 385]: the values for the inhibition constant (Ki) (in test [1]; on ROCK I (AA 6-553); at Aurora-B) were under 500 nM, 500 to 5000 nM and under 500 nM, respectively.
Regarding `C[C@@H](Nc1nc(-c2c[nH]c3ncc(Cl)cc23)ncc1F)c1ccc([N+](=O)[O-])cc1` [Compound 310], the Ki in test [1] is under 500 nM; on ROCK I (AA 6-553), 500 to 5000 nM; at Aurora-B, under 500 nM.
For the compound `O=C(CNc1nc(-c2c[nH]c3ncc(Cl)cc23)ncc1C(F)(F)F)NCC(F)(F)F` [Compound 421], the Ki in test [1] is under 500 nM; at ROCK I (AA 6-553) it was 500 to 5000 nM; at Aurora-B, 500 to 5000 nM.
Regarding `C[C@H](Nc1cc(N2CCN(C(=O)OC(C)(C)C)CC2)nc(-c2c[nH]c3ncc(Cl)cc23)n1)C(=O)NCC(F)(F)F` [Compound 415], the Ki is under 500 nM in test [1], 500 to 5000 nM at ROCK I (AA 6-553) and under 500 nM on Aurora-B.
Take `Cc1cnc(-c2c[nH]c3ncc(Cl)cc23)nc1N[C@@H](C)c1ccc(F)cc1` [Compound 322]: the inhibitory constant (Ki) in test [1] is under 500 nM; at ROCK I (AA 6-553) it was 500 to 5000 nM; at Aurora-B it was under 500 nM.
On to `C[C@H](Nc1ccnc(-c2c[nH]c3ncc(Cl)cc23)n1)C(=O)NCC(F)(F)F` [Compound 413], for which the Ki in test [1] is under 500 nM; at ROCK I (AA 6-553), 500 to 5000 nM; on Aurora-B, under 500 nM.
On to `Cc1cccc(C)c1Nc1nc(-c2c[nH]c3ncc(Cl)cc23)ncc1F` [Compound 300], for which the Ki (in test [1]; on ROCK I (AA 6-553); at Aurora-B) was under 500 nM throughout.
